Assay results from the RepoRT retention time repository (doi:10.1007/s00216-021-03828-0).

Experiments:
Conditions in all cases: stereoisomer not certain
[1] = RP, Merck Supelco Ascentis Express C18, 100 × 2.1 mm, 2 µm, 40 °C, 0.4 mL/min, estimated dead time 0.55 min; A: water + 0.1% formic acid, pH 3; B: acetonitrile + 0.1% formic acid, pH 3; gradient (min/%B) 0/5 2/5 17/99.9 20/99.9
[2] = RP, Merck Supelco Ascentis Express C18, 100 × 2.1 mm, 2 µm, 40 °C, 0.2 mL/min, estimated dead time 1.1 min; A: water + 0.1% formic acid, pH 3; B: acetonitrile + 0.1% formic acid, pH 3; gradient (min/%B) 0/5 2/5 17/99.9 20/99.9
[3] = RP, Merck Supelco Ascentis Express C18, 100 × 2.1 mm, 2 µm, 39 °C, 0.3 mL/min, estimated dead time 0.73 min; A: water + 0.1% formic acid, pH 3; B: acetonitrile + 0.1% formic acid, pH 3; gradient (min/%B) 0/5 2/5 17/99.9 20/99.9
[4] = RP, Merck Supelco Ascentis Express C18, 100 × 2.1 mm, 2 µm, 40 °C, 0.25 mL/min, estimated dead time 0.88 min; A: water + 0.1% formic acid, pH 3; B: acetonitrile + 0.1% formic acid, pH 3; gradient (min/%B) 0/5 2/5 17/99.9 20/99.9
[5] = RP, Merck Supelco Ascentis Express C18, 100 × 2.1 mm, 2 µm, 40 °C, 0.2 mL/min, estimated dead time 1.1 min; A: water + 0.1% formic acid, pH 3; B: acetonitrile + 0.1% formic acid, pH 3; gradient (min/%B) 0/5 2/5 17/99.9 20/99.9; remark: listed apart in the source
[6] = RP, Merck Supelco Ascentis Express C18, 100 × 2.1 mm, 2 µm, 40 °C, 0.35 mL/min, estimated dead time 0.63 min; A: water + 0.1% formic acid, pH 3; B: acetonitrile + 0.1% formic acid, pH 3; gradient (min/%B) 0/5 2/5 17/99.9 20/99.9
[7] = RP, Merck Supelco Ascentis Express C18, 100 × 2.1 mm, 2 µm, 40 °C, 0.4 mL/min, estimated dead time 0.55 min; A: water + 0.1% formic acid, pH 3; B: acetonitrile + 0.1% formic acid, pH 3; gradient (min/%B) 0/5 2/5 17/99.9 20/99.9; remark: listed apart in the source

SMILES: CCCCCCCCCCCCCC(=O)O [MYRISTATE]
- LC retention time [1]: 14.3 min
- LC retention time [2]: 16.4 min
- LC retention time [3]: 15 min
- LC retention time [4]: 15.6 min
- LC retention time [5]: 16.4 min
- LC retention time [6]: 14.6 min
- LC retention time [7]: 14.2 min

SMILES: O=C(O)CCCCCCCCCCCO [OMEGA-HYDROXYDODECANOATE]
- LC retention time [1]: 8.17 min
- LC retention time [2]: 9.68 min
- LC retention time [3]: 8.71 min
- LC retention time [4]: 9.11 min
- LC retention time [5]: 9.68 min
- LC retention time [6]: 8.4 min
- LC retention time [7]: 8.13 min

SMILES: CC12CCC(=O)C=C1CCC1C2C(=O)CC2(C)C1CCC2(O)C(=O)CO (stereo not given) [CORTISONE]
- LC retention time [1]: 6.73 min
- LC retention time [2]: 8.07 min
- LC retention time [3]: 7.21 min
- LC retention time [4]: 7.56 min
- LC retention time [5]: 8.09 min
- LC retention time [6]: 6.91 min
- LC retention time [7]: 6.69 min

SMILES: COc1ccc2[nH]cc(CCNC(C)=O)c2c1 [MELATONIN]
- LC retention time [1]: 5.53 min
- LC retention time [2]: 7 min
- LC retention time [3]: 6.06 min
- LC retention time [4]: 6.46 min
- LC retention time [5]: 7.01 min
- LC retention time [6]: 5.75 min
- LC retention time [7]: 5.49 min

SMILES: CC(=O)c1ccc(O)cc1O [2',4'-DIHYDROXYACETOPHENONE]
- LC retention time [1]: 5.17 min
- LC retention time [2]: 7 min
- LC retention time [3]: 5.94 min
- LC retention time [4]: 6.34 min
- LC retention time [5]: 7.01 min
- LC retention time [6]: 5.5 min
- LC retention time [7]: 5.14 min

SMILES: O=Cc1ccc(O)cc1 [4-HYDROXYBENZALDEHYDE]
- LC retention time [1]: 3.64 min
- LC retention time [2]: 5.46 min
- LC retention time [3]: 4.34 min
- LC retention time [4]: 4.82 min
- LC retention time [5]: 5.47 min
- LC retention time [6]: 3.94 min
- LC retention time [7]: 3.59 min

SMILES: COc1cc(CC(=O)O)ccc1O [HOMOVANILLATE]
- LC retention time [1]: 3.96 min
- LC retention time [2]: 5.42 min
- LC retention time [3]: 4.5 min
- LC retention time [4]: 4.9 min
- LC retention time [5]: 5.43 min
- LC retention time [6]: 4.18 min
- LC retention time [7]: 3.93 min

SMILES: CCCCC(N)C(=O)O (stereo not given) [NORLEUCINE]
- LC retention time [1]: 0.8 min
- LC retention time [2]: 1.63 min
- LC retention time [3]: 1.05 min
- LC retention time [4]: 1.3 min
- LC retention time [5]: 1.62 min
- LC retention time [6]: 0.91 min
- LC retention time [7]: 0.79 min

SMILES: O=C(O)c1ccnc2ccccc12 [4-QUINOLINECARBOXYLATE]
- LC retention time [1]: 0.773 min
- LC retention time [2]: 1.6 min
- LC retention time [3]: 1.04 min
- LC retention time [4]: 1.26 min
- LC retention time [5]: 1.57 min
- LC retention time [6]: 0.88 min
- LC retention time [7]: 0.763 min

SMILES: O=C(O)c1cccc(O)c1O [2,3-DIHYDROXYBENZOATE]
- LC retention time [1]: 1.53 min
- LC retention time [2]: 5.32 min
- LC retention time [3]: 2.06 min
- LC retention time [4]: 2.44 min
- LC retention time [5]: 5.33 min
- LC retention time [6]: 3.88 min
- LC retention time [7]: 1.52 min

SMILES: CCC(C(=O)O)C(=O)O [ETHYLMALONATE]
- LC retention time [1]: 1.48 min
- LC retention time [2]: 3.05 min
- LC retention time [3]: 2.06 min
- LC retention time [4]: 2.31 min
- LC retention time [5]: 3.01 min
- LC retention time [6]: 1.72 min
- LC retention time [7]: 1.48 min

SMILES: CC(=O)N1CCCC1C(=O)O (stereo not given) [N-ACETYLPROLINE]
- LC retention time [1]: 1.46 min
- LC retention time [2]: 2.77 min
- LC retention time [3]: 1.89 min
- LC retention time [4]: 2.22 min
- LC retention time [5]: 2.76 min
- LC retention time [6]: 1.58 min
- LC retention time [7]: 1.39 min

SMILES: O=C([O-])CCCCCCC(=O)[O-] [SUBERATE]
- LC retention time [1]: 4.62 min
- LC retention time [2]: 6.08 min
- LC retention time [3]: 5.22 min
- LC retention time [4]: 5.55 min
- LC retention time [5]: 6.08 min
- LC retention time [6]: 4.87 min
- LC retention time [7]: 4.59 min

SMILES: CC(CCC(=O)NCCS(=O)(=O)O)C1CCC2C3CCC4CC(O)CCC4(C)C3CCC12C (stereo not given) [LITHOCHOLYLTAURINE]
- LC retention time [1]: 9.6 min
- LC retention time [2]: 11 min
- LC retention time [3]: 10.2 min
- LC retention time [4]: 10.5 min
- LC retention time [5]: 11.1 min
- LC retention time [6]: 9.86 min
- LC retention time [7]: 9.62 min

SMILES: O=C(O)Cc1cc(O)ccc1O [HOMOGENTISATE]
- LC retention time [1]: 1.22 min
- LC retention time [2]: 2.48 min
- LC retention time [3]: 1.64 min
- LC retention time [4]: 1.92 min
- LC retention time [5]: 2.38 min
- LC retention time [6]: 1.35 min
- LC retention time [7]: 1.16 min

SMILES: N[C@@H](Cc1ccc(O)c([N+](=O)[O-])c1)C(=O)O [3-NITRO-L-TYROSINE]
- LC retention time [1]: 1.35 min
- LC retention time [2]: 2.72 min
- LC retention time [3]: 1.78 min
- LC retention time [4]: 2.14 min
- LC retention time [5]: 2.7 min
- LC retention time [6]: 1.56 min
- LC retention time [7]: 1.35 min

SMILES: CC(=O)OCC(=O)C1(O)CCC2C3CCC4=CC(=O)CCC4(C)C3C(O)CC21C (stereo not given) [CORTISOL 21-ACETATE]
- LC retention time [1]: 8.09 min
- LC retention time [2]: 9.62 min
- LC retention time [3]: 8.64 min
- LC retention time [4]: 9.05 min
- LC retention time [5]: 9.62 min
- LC retention time [6]: 8.33 min
- LC retention time [7]: 8.05 min

SMILES: CC(=O)NCCc1c[nH]c2ccc(O)cc12 [N-ACETYLSEROTONIN]
- LC retention time [1]: 3.52 min
- LC retention time [2]: 4.97 min
- LC retention time [3]: 4.07 min
- LC retention time [4]: 4.45 min
- LC retention time [5]: 4.96 min
- LC retention time [6]: 3.77 min
- LC retention time [7]: 3.5 min

SMILES: O=C(O)C(O)c1ccccc1 (stereo not given) [MANDELATE]
- LC retention time [1]: 2.95 min
- LC retention time [2]: 4.83 min
- LC retention time [3]: 3.67 min
- LC retention time [4]: 4.19 min
- LC retention time [5]: 4.85 min
- LC retention time [6]: 3.27 min
- LC retention time [7]: 2.88 min

SMILES: O=C(O)C(O)Cc1ccc(O)cc1 (stereo not given) [HYDROXYPHENYLLACTATE]
- LC retention time [1]: 3.96 min
- LC retention time [2]: 5.42 min
- LC retention time [3]: 4.5 min
- LC retention time [4]: 4.9 min
- LC retention time [5]: 5.43 min
- LC retention time [6]: 4.18 min
- LC retention time [7]: 3.93 min

SMILES: CC(C)(CO)C(O)C(=O)NCCC(=O)O (stereo not given) [PANTOTHENATE]
- LC retention time [1]: 1.38 min
- LC retention time [2]: 2.71 min
- LC retention time [3]: 1.79 min
- LC retention time [4]: 2.15 min
- LC retention time [5]: 2.7 min
- LC retention time [6]: 1.56 min
- LC retention time [7]: 1.36 min

SMILES: O=C(O)C(=O)Cc1c[nH]c2ccccc12 [INDOLE-3-PYRUVATE]
- LC retention time [1]: 5.52 min
- LC retention time [2]: 7 min
- LC retention time [3]: 6.08 min
- LC retention time [4]: 6.47 min
- LC retention time [5]: 7.11 min
- LC retention time [6]: 5.84 min
- LC retention time [7]: 5.58 min

SMILES: CC(=O)Oc1ccccc1 [PHENYL ACETATE]
- LC retention time [1]: 3.95 min
- LC retention time [2]: 5.44 min
- LC retention time [3]: 4.5 min
- LC retention time [4]: 4.9 min
- LC retention time [5]: 5.43 min
- LC retention time [6]: 4.18 min
- LC retention time [7]: 3.93 min

SMILES: CC(CCC(=O)NCC(=O)O)C1CCC2C3C(O)CC4CC(O)CCC4(C)C3CC(O)C12C (stereo not given) [GLYCOCHOLATE]
- LC retention time [1]: 8 min
- LC retention time [2]: 9.2 min
- LC retention time [3]: 8.42 min
- LC retention time [4]: 8.75 min
- LC retention time [5]: 9.22 min
- LC retention time [6]: 8.17 min
- LC retention time [7]: 7.96 min

SMILES: Cn1c(=O)c2[nH]cnc2n(C)c1=O [THEOPHYLLINE]
- LC retention time [1]: 2.16 min
- LC retention time [2]: 3.96 min
- LC retention time [3]: 2.81 min
- LC retention time [4]: 3.32 min
- LC retention time [5]: 3.98 min
- LC retention time [6]: 2.47 min
- LC retention time [7]: 2.15 min

SMILES: O=C(O)c1cc(=O)c2ccccc2[nH]1 [KYNURENATE]
- LC retention time [1]: 2.97 min
- LC retention time [2]: 4.52 min
- LC retention time [3]: 3.64 min
- LC retention time [4]: 4 min
- LC retention time [5]: 4.53 min
- LC retention time [6]: 3.24 min
- LC retention time [7]: 2.93 min

SMILES: O=C(O)CCCCC1SCC2NC(=O)NC21 (stereo not given) [BIOTIN]
- LC retention time [1]: 4.14 min
- LC retention time [2]: 5.44 min
- LC retention time [3]: 4.62 min
- LC retention time [4]: 4.96 min
- LC retention time [5]: 5.44 min
- LC retention time [6]: 4.34 min
- LC retention time [7]: 4.11 min

SMILES: CC1NC(=O)NC1CCCCCC(=O)O (stereo not given) [DETHIOBIOTIN]
- LC retention time [1]: 4.58 min
- LC retention time [2]: 5.92 min
- LC retention time [3]: 5.15 min
- LC retention time [4]: 5.43 min
- LC retention time [5]: 5.96 min
- LC retention time [6]: 4.81 min
- LC retention time [7]: 4.54 min

SMILES: CSCC1OC(n2cnc3c(N)ncnc32)C(O)C1O (stereo not given) [METHYLTHIOADENOSINE]
- LC retention time [1]: 2.3 min
- LC retention time [2]: 4.08 min
- LC retention time [3]: 2.98 min
- LC retention time [4]: 3.51 min
- LC retention time [5]: 4.07 min
- LC retention time [6]: 2.58 min
- LC retention time [7]: 2.27 min

SMILES: O=C(O)CCCCCC(=O)O [6-CARBOXYHEXANOATE]
- LC retention time [1]: 3.66 min
- LC retention time [2]: 5.13 min
- LC retention time [3]: 4.22 min
- LC retention time [4]: 4.61 min
- LC retention time [5]: 5.14 min
- LC retention time [6]: 3.89 min
- LC retention time [7]: 3.63 min
